Experimental data published in US7157083B2, “Compositions and methods for treating retroviral infections” (priority 1998, dated 2007).
Read-outs that look alike come from different tables or passages of the source.

Columns and labels:
PBMCs = experiment: Study 4 sensitization: cell viability; type: cell-based, human
Experimental: Percent virus control (% VC) in the following tables is the mean RT activity (cpm) as a percentage of a virus control. Percent cell control (% CC) is the mean XTT absorbance as a percentage of a cell control.
The macrophage plates were then washed with HBSS multiple times. Fresh mixed pha blast PBMCs (5×10e4/well) were placed on the macrophage cells, allowed to incubate for 72 hours and then harvested and reset in a fresh 96 well plate. The PBMCs were then challenged overnight with the respective virus (IIIB or Rojo) at a standard MOI for that virus. The PBMCs were 5× in plate spin washed with DPBS, incubated 24 hours, at which time 5×10e4 fresh pha blast PBMCs/well were added. The culture was incubated an additional 6 days and then assayed for RT activity.
Where viability corrections were conducted, they were performed by dividing the RT CPM value by the toxicity absorbance in order to compensate for well to well variations noted in the cell titer toxicity noted.

HIV-1 [1] = conditions: Assay #6
Experimental: (§1) Reverse transcriptase (RT) activity was measured in cell-free supernatants. Tritiated thymidine triphosphate (NEN) (TTP) was resuspended in distilled H2O at 5 Cl/mL. Poly rA and oligo dT were prepared as a stock solution which was kept at −20° C. The RT reaction buffer was prepared fresh on a daily basis and consists of 125 μL 1.0 M EGTA, 125 μL d H2O, 110 μL 10% SDS, 50 μL 1.0 M Tris (pH 7.4), 50 μL 1.0 M DTT, and 40μ1.0 M MgCl2. These three solutions were mixed together in a ratio of 2 parts TTP, 1 part poly rA:oligo dT, and 1 part reaction buffer. Ten microliters of this reaction mixture was placed in a round bottom microtiter plate and 15 μL of virus containing supernatant was added and mixed. The plate was incubated at 37° C. in a water bath with a solid support to prevent submersion of the plate and incubated for 60 minutes. Following reaction, the reaction volume was spotted onto pieces of DE81 paper, washed 5 times for 5 minutes each in a 5% sodium phosphate buffer, 2 times for 1 minute each in distilled water, 2 times for 1 minute each in 70% ethanol, and then dried. Opti-Fluor O was added to each sample and incorporated radioactivity was quantitated utilizing a Wallace 1450 Microbetaplus liquid scintillation counter.

HIV-1 [2] = conditions: Assay #5
Experimental: as §1

HIV-1 [3] = conditions: for % Control, Sum / Mean RT, Sum: Sum over 20, 10, 5 mg/mL
Experimental: Reverse transcriptase (RT) activity was measured in cell-free supernatants. Tritiated thymidine triphosphate (NEN) (TTP) was resuspended in distilled H2O at […]. Poly rA and oligo dT were prepared as a stock solution which was kept at −20° C. The RT reaction buffer was prepared fresh on a daily basis and consists of 125 μL 1.0 M EGTA, 125 μL d H2O, 110 μL 10% SDS, 50 μL 1.0 M Tris (pH 7.4), 50 μL 1.0 M DTT, and 40μ1.0 M MgCl2. These three solutions were mixed together in a ratio of 2 parts TTP, 1 part poly rA:oligo dT, and 1 part reaction buffer. Ten microliters of this reaction mixture was placed in a round bottom microtiter plate and 15 μL of virus containing supernatant was added and mixed. The plate was incubated at 37° C. in a water bath with a solid support to prevent submersion of the plate and incubated for 60 minutes. Following reaction, the reaction volume was spotted onto pieces of DE81 paper, washed 5 times for 5 minutes each in a 5% sodium phosphate buffer, 2 times for 1 minute each in distilled water, 2 times for 1 minute each in 70% ethanol, and then dried. Opti-Fluor O was added to each sample and incorporated radioactivity was quantitated utilizing a Wallace 1450 Microbetaplus liquid scintillation counter.
Control groups were not treated with the enzyme. The virus was then titrated on macrophage/monocyte cultures and incubated at 37° C. for 48 hours at which time the macrophages and monocytes were washed 3×, resuspended and placed in fresh wells. Naïve PBMC's were overlayed on the macrophage/monocyte cultures and incubated at 37° C. for 72 hours. The PBMC's were then separated, washed and placed in fresh wells with fresh medium and rested for 48 hours. After a 48 hour rest period, the PBMC's were challenged with HIV-1 with and without PHA, I1-2, or both. […] These various assays are presented below in Table 10 .

Hyaluronidase
cell viability % CC (PBMCs; 0.097656 μg/mL, GP120IIIB Sensitized, Standard): 167.6% | cell viability % CC (PBMCs; 0.097656 μg/mL, IIIB Sensitized, Standard): 138.2% | cell viability % CC (PBMCs; 0.390625 μg/mL, GP120IIIB Sensitized, Turpin): 67.6% | cell viability % CC (PBMCs; 1.5625 μg/mL, GP120IIIB Sensitized, Turpin): 73.4% | cell viability % CC (PBMCs; 6.25 μg/mL, GP120IIIB Sensitized, Turpin): 73.2% | cell viability % CC (PBMCs; 6.25 μg/mL, IIIB Sensitized, Standard): 133.5% | cell viability % CC (PBMCs; 25 μg/mL, Rojo Sensitized, Turpin): 75.0% | cell viability % CC (PBMCs; Table 9, 0.097656 μg/mL, GP120IIIB Sensitized, Standard): 167.6% | cell viability % CC (PBMCs; Table 9, 0.097656 μg/mL, IIIB Sensitized, Standard): 138.2% | cell viability % CC (PBMCs; Table 9, 0.390625 μg/mL, GP120IIIB Sensitized, Turpin): 67.6% | cell viability % CC (PBMCs; Table 9, 1.5625 μg/mL, GP120IIIB Sensitized, Turpin): 73.4% | cell viability % CC (PBMCs; Table 9, 6.25 μg/mL, GP120IIIB Sensitized, Turpin): 73.2% | cell viability % CC (PBMCs; Table 9, 6.25 μg/mL, IIIB Sensitized, Standard): 133.5% | cell viability % CC (PBMCs; Table 9, 25 μg/mL, Rojo Sensitized, Turpin): 75.0% | % Control (HIV-1 [1]; 5 mg/mL): 54.1% | Mean RT (HIV-1 [1]; 5 mg/mL): 12279.7 cpm | % Control (HIV-1 [1]; 10 mg/mL): 49.6% | Mean RT (HIV-1 [1]; 10 mg/mL): 11244.7 cpm | % Control (HIV-1 [1]; 20 mg/mL): 19.5% | Mean RT (HIV-1 [1]; 20 mg/mL): 4430.7 cpm | % Control, Sum (HIV-1 [1]; Sum over 20, 10, 5 mg/mL): 123.2% | Mean RT, Sum (HIV-1 [1]; Sum over 20, 10, 5 mg/mL): 27955.1 cpm | % Control (HIV-1 [2]; 5 mg/mL): 65.1% | Mean RT (HIV-1 [2]; 5 mg/mL): 12442.7 cpm | % Control (HIV-1 [2]; 10 mg/mL): 58.3% | Mean RT (HIV-1 [2]; 10 mg/mL): 11156.3 cpm | % Control (HIV-1 [2]; 20 mg/mL): 18.5% | % Control, Sum (HIV-1 [2]; Sum over 20, 10, 5 mg/mL): 141.9% | Mean RT, Sum (HIV-1 [2]; Sum over 20, 10, 5 mg/mL): 23599 cpm | % Control (HIV-1 [3]; Assay #1, 5 mg/mL): 97.3% | Mean RT (HIV-1 [3]; Assay #1, 5 mg/mL): 20882.7 cpm | % Control (HIV-1 [3]; Assay #1, 10 mg/mL): 27.9% | Mean RT (HIV-1 [3]; Assay #1, 10 mg/mL): 6000 cpm | % Control (HIV-1 [3]; Assay #1, 20 mg/mL): 16.9% | Mean RT (HIV-1 [3]; Assay #1, 20 mg/mL): 3635.7 cpm | % Control, Sum (HIV-1 [3]; Assay #1): 142.1% | Mean RT, Sum (HIV-1 [3]; Assay #1): 30518.4 cpm | % Control (HIV-1 [3]; Assay #2, 5 mg/mL): 20.6% | Mean RT (HIV-1 [3]; Assay #2, 5 mg/mL): 6548.3 cpm | % Control (HIV-1 [3]; Assay #2, 10 mg/mL): 26.4% | Mean RT (HIV-1 [3]; Assay #2, 10 mg/mL): 8391.3 cpm | % Control (HIV-1 [3]; Assay #2, 20 mg/mL): 10.4% | Mean RT (HIV-1 [3]; Assay #2, 20 mg/mL): 3298.3 cpm | % Control, Sum (HIV-1 [3]; Assay #2): 57.4% | Mean RT, Sum (HIV-1 [3]; Assay #2): 18237.9 cpm | % Control (HIV-1 [3]; Assay #3, 5 mg/mL): 42.7% | Mean RT (HIV-1 [3]; Assay #3, 5 mg/mL): 5641.7 cpm | % Control (HIV-1 [3]; Assay #3, 10 mg/mL): 91.2% | Mean RT (HIV-1 [3]; Assay #3, 10 mg/mL): 12058 cpm | % Control (HIV-1 [3]; Assay #3, 20 mg/mL): 90.3% | Mean RT (HIV-1 [3]; Assay #3, 20 mg/mL): 11940.7 cpm | % Control, Sum (HIV-1 [3]; Assay #3): 224.2% | Mean RT, Sum (HIV-1 [3]; Assay #3): 29640.4 cpm | % Control (HIV-1 [3]; Assay #4, 5 mg/mL): 1.9% | Mean RT (HIV-1 [3]; Assay #4, 5 mg/mL): 247.3 cpm | % Control (HIV-1 [3]; Assay #4, 10 mg/mL): 22.4% | Mean RT (HIV-1 [3]; Assay #4, 10 mg/mL): 2973.7 cpm | % Control (HIV-1 [3]; Assay #4, 20 mg/mL): 29.9% | Mean RT (HIV-1 [3]; Assay #4, 20 mg/mL): 3961.7 cpm | % Control, Sum (HIV-1 [3]; Assay #4): 54.2% | Mean RT, Sum (HIV-1 [3]; Assay #4): 7182.7 cpm | % Control (HIV-1 [3]; Assay #9, 5 mg/mL): 137.4% | Mean RT (HIV-1 [3]; Assay #9, 5 mg/mL): 11038 cpm | % Control (HIV-1 [3]; Assay #9, 10 mg/mL): 128.8% | Mean RT (HIV-1 [3]; Assay #9, 10 mg/mL): 10344 cpm | % Control (HIV-1 [3]; Assay #9, 20 mg/mL): 96.2% | Mean RT (HIV-1 [3]; Assay #9, 20 mg/mL): 7725.7 cpm | % Control, Sum (HIV-1 [3]; Assay #9): 362.4% | Mean RT, Sum (HIV-1 [3]; Assay #9): 29107.7 cpm | % Control (HIV-1 [3]; Assay #10, 5 mg/mL): 230.8% | Mean RT (HIV-1 [3]; Assay #10, 5 mg/mL): 13715.3 cpm | % Control (HIV-1 [3]; Assay #10, 10 mg/mL): 122.2% | Mean RT (HIV-1 [3]; Assay #10, 10 mg/mL): 7258.7 cpm | % Control (HIV-1 [3]; Assay #10, 20 mg/mL): 61.1% | Mean RT (HIV-1 [3]; Assay #10, 20 mg/mL): 3633.7 cpm | % Control, Sum (HIV-1 [3]; Assay #10): 414.1% | Mean RT, Sum (HIV-1 [3]; Assay #10): 24607.7 cpm | % Control (HIV-1 [3]; Assay #11, 5 mg/mL): 63.2% | Mean RT (HIV-1 [3]; Assay #11, 5 mg/mL): 17826.3 cpm | % Control (HIV-1 [3]; Assay #11, 10 mg/mL): 75.3% | Mean RT (HIV-1 [3]; Assay #11, 10 mg/mL): 21230 cpm | % Control (HIV-1 [3]; Assay #11, 20 mg/mL): 30.1% | Mean RT (HIV-1 [3]; Assay #11, 20 mg/mL): 8496.3 cpm | % Control, Sum (HIV-1 [3]; Assay #11): 168.6% | Mean RT, Sum (HIV-1 [3]; Assay #11): 47552.6 cpm | % Control (HIV-1 [3]; Assay #12, 5 mg/mL): 118.3% | Mean RT (HIV-1 [3]; Assay #12, 5 mg/mL): 17657 cpm | % Control (HIV-1 [3]; Assay #12, 10 mg/mL): 39.8% | Mean RT (HIV-1 [3]; Assay #12, 10 mg/mL): 5946.7 cpm | % Control (HIV-1 [3]; Assay #12, 20 mg/mL): 56.1% | Mean RT (HIV-1 [3]; Assay #12, 20 mg/mL): 8382 cpm | % Control, Sum (HIV-1 [3]; Assay #12): 214.2% | Mean RT, Sum (HIV-1 [3]; Assay #12): 31985.7 cpm
